Columns and labels:
[1] = target: Human norepinephrine transporter (NET) (Homo sapiens, UniProt P23975); experiment: Binding assay to human norepinephrine transporter (NET), [3H]-Nisoxetin; settings: human NET enriched membranes, 5 nM [3H]-Nisoxetin; read-out: Ki (nM) NET Hum
Experimental: Binding Assay to Human Norepinephrine Transporter (NET).
Human norepinephrine transporter (NET) enriched membranes (5 μg) were incubated with 5 nM of radiolabeled [3H]-Nisoxetin in assay buffer containing 50 mM Tris-HCl, 120 mM NaCl, 5 mM KCl, pH 7.4.
NSB (non specific binding) was measured by adding 1 μM. After 60 min incubation at 4° C., binding reaction was terminated by filtering through Multiscreen GF/C (Millipore) presoaked in 0.5% polyethyleneimine in Vacuum Manifold Station, followed by 3 washes with ice-cold filtration buffer containing 50 mM Tris-HCl, 0.9% NaCl, pH 7.4. Filter plates were dried at 60° C. for 1 hour and 30 μl of scintillation cocktail were added to each well before radioactivity reading.

[2] = target: Human α2δ-1 subunit of Cav2.2 calcium channel (Homo sapiens, UniProt P54289); experiment: Binding assay to human α2δ-1 subunit of Cav2.2 calcium channel, [3H]-Gabapentin; settings: human α2δ-1 enriched membranes, 15 nM [3H]-Gabapentin; read-out: Ki (nM) alpha2delta Hum
Experimental: Binding Assay to Human α2δ-1 Subunit of Cav2.2 Calcium Channel.
Human α2δ-1 enriched membranes (2.5 μg) were incubated with 15 nM of radiolabeled [3H]-Gabapentin in assay buffer containing Hepes-KOH 10 mM, pH 7.4.
NSB (non specific binding) was measured by adding 10 μM pregabalin. After 60 min incubation at 27° C., binding reaction was terminated by filtering through Multiscreen GF/C (Millipore) presoaked in 0.5% polyethyleneimine in Vacuum Manifold Station, followed by 3 washes with ice-cold filtration buffer containing 50 mM Tris-HCl, pH 7.4.
Filter plates were dried at 60° C. for 1 hour and 30 μl of scintillation cocktail were added to each well before radioactivity reading.
Readings were performed in a Trilux 1450 Microbeta radioactive counter (Perkin Elmer).

Chain of Human α2δ-1 subunit of Cav2.2 calcium channel (P54289 25-1103): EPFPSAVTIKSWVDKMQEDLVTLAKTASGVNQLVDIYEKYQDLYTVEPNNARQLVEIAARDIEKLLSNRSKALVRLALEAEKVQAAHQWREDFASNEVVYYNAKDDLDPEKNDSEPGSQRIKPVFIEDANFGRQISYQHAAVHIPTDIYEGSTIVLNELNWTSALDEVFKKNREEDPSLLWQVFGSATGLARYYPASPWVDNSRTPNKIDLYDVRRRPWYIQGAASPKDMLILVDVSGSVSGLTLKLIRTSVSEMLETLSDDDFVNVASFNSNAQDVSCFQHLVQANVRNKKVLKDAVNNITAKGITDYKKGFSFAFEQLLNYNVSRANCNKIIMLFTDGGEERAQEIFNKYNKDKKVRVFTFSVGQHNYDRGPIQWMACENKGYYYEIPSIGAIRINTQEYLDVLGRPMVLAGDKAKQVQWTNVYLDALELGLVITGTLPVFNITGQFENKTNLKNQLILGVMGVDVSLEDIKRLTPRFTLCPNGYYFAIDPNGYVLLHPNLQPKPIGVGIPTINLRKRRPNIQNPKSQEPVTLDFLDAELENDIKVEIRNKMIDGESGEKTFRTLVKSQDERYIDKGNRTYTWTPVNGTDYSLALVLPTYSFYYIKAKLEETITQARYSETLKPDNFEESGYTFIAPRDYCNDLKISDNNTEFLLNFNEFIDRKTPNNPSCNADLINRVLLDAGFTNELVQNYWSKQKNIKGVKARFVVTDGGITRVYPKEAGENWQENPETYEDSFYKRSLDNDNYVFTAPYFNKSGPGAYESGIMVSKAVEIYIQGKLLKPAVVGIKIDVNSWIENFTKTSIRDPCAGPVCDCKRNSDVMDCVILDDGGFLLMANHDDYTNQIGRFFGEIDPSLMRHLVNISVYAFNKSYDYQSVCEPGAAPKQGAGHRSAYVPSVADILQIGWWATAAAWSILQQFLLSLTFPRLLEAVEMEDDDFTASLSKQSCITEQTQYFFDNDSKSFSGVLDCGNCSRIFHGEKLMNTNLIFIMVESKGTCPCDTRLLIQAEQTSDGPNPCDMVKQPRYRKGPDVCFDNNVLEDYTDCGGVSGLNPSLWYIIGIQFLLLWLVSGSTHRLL
Chain of Human norepinephrine transporter (NET) (P23975 whole entry): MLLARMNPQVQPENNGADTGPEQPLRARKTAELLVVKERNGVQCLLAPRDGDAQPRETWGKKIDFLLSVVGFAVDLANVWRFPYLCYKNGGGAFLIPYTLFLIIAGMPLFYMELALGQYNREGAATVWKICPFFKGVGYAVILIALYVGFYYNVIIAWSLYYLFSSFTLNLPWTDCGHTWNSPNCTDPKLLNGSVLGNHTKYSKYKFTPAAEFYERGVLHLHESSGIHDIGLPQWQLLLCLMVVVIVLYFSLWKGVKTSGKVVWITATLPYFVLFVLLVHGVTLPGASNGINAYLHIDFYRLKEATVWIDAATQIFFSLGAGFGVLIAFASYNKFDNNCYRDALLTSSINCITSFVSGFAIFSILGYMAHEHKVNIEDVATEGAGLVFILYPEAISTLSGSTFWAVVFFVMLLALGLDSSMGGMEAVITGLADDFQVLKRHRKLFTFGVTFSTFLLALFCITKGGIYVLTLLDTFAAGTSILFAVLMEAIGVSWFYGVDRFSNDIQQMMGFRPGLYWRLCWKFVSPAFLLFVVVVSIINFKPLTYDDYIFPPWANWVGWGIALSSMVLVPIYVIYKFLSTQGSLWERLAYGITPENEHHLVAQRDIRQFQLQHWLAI

Row | Structure (SMILES) | Ki [1] | Ki [2]
1 | CNCC[C@H](c1cccs1)N1CCc2ncc(F)cc21 [Example 26, (R)-3-(6-Fluoro-2,3-dihydro-1H-pyrrolo[3,2-b]pyridin-1-yl)-N-methyl-3-(thiophen-2-yl)propan-1-amine] | > 1000 nM | 100 to 500 nM
2 | CNCC[C@@H](c1cccs1)N1CCc2ncc(F)cc21 [Example 27, (S)-3-(6-Fluoro-2,3-dihydro-1H-pyrrolo[3,2-b]pyridin-1-yl)-N-methyl-3-(thiophen-2-yl)propan-1-amine] | > 1000 nM | 100 to 500 nM
3 | CNCC[C@H](c1cccs1)N1CCc2ncc(OC)cc21 [Example 30, (R)-3-(6-Methoxy-2,3-dihydro-1H-pyrrolo[3,2-b]pyridin-1-yl)-N-methyl-3-(thiophen-2-yl)propan-1-amine] | > 1000 nM | 100 to 500 nM
4 | CNCC[C@H](c1cccs1)N1CC(C)(C)c2nc(C)ccc21 [Example 34, (R)-N-methyl-3-(thiophen-2-yl)-3-(3,3,5-trimethyl-2,3-dihydro-1H-pyrrolo[3,2-b]pyridin-1-yl)propan-1-amine] | > 1000 nM | < 100 nM
5 | CNCC[C@@H](c1cccs1)N1CCc2ncc(C(C)C)cc21 [Example 38, (S)-3-(6-Isopropyl-2,3-dihydro-1H-pyrrolo[3,2-b]pyridin-1-yl)-N-methyl-3-(thiophen-2-yl)propan-1-amine] | > 1000 nM | ≥ 3000 nM
6 | CNCC[C@H](c1cccs1)N1CCc2ncc(C(C)C)cc21 [Example 39, (R)-3-(6-Isopropyl-2,3-dihydro-1H-pyrrolo[3,2-b]pyridin-1-yl)-N-methyl-3-(thiophen-2-yl)propan-1-amine] | > 1000 nM | 100 to 500 nM
7 | CNCC[C@H](c1ccc(Cl)s1)N1CCc2ncccc21 [Example 41, (R)-3-(5-Chlorothiophen-2-yl)-3-(2,3-dihydro-1H-pyrrolo[3,2-b]pyridin-1-yl)-N-methylpropan-1-amine] | > 1000 nM | 500 to 3000 nM
8 | CNCC[C@H](c1cc(C)sc1C)N1CCc2ncccc21 [Example 42, (R)-3-(2,3-Dihydro-1H-pyrrolo[3,2-b]pyridin-1-yl)-3-(2,5-dimethylthiophen-3-yl)-N-methylpropan-1-amine] | > 1000 nM | ≥ 3000 nM
9 | CNCC[C@@H](c1cc(C)sc1C)N1CCc2ncccc21 [Example 43, (S)-3-(2,3-Dihydro-1H-pyrrolo[3,2-b]pyridin-1-yl)-3-(2,5-dimethylthiophen-3-yl)-N-methylpropan-1-amine] | > 1000 nM | ≥ 3000 nM
10 | CNCC[C@H](c1ccc(C)s1)N1CCc2ncccc21 [Example 44, (R)-3-(2,3-Dihydro-1H-pyrrolo[3,2-b]pyridin-1-yl)-N-methyl-3-(5-methylthiophen-2-yl)propan-1-amine] | > 1000 nM | 500 to 3000 nM
11 | CNCC[C@@H](c1ccc(C)s1)N1CCc2ncccc21 [Example 45, (S)-3-(2,3-Dihydro-1H-pyrrolo[3,2-b]pyridin-1-yl)-N-methyl-3-(5-methylthiophen-2-yl)propan-1-amine] | > 1000 nM | 500 to 3000 nM
12 | CNCC[C@H](c1ccsc1)N1CCc2nc(C(C)C)ccc21 [Example 46, (R)-3-(5-Isopropyl-2,3-dihydro-1H-pyrrolo[3,2-b]pyridin-1-yl)-N-methyl-3-(thiophen-3-yl)propan-1-amine] | > 1000 nM | 500 to 3000 nM
13 | CNCC[C@@H](c1ccsc1)N1CCc2nc(C(C)C)ccc21 [Example 47, (S)-3-(5-Isopropyl-2,3-dihydro-1H-pyrrolo[3,2-b]pyridin-1-yl)-N-methyl-3-(thiophen-3-yl)propan-1-amine] | > 1000 nM | 500 to 3000 nM
14 | CNCC[C@H](c1cccs1)N1CCc2nc(C(C)C)ccc21 [Example 48, (R)-3-(5-Isopropyl-2,3-dihydro-1H-pyrrolo[3,2-b]pyridin-1-yl)-N-methyl-3-(thiophen-2-yl)propan-1-amine] | > 1000 nM | 500 to 3000 nM
15 | CNCC[C@@H](c1cccs1)N1CCc2nc(C(C)C)ccc21 [Example 49, (S)-3-(5-Isopropyl-2,3-dihydro-1H-pyrrolo[3,2-b]pyridin-1-yl)-N-methyl-3-(thiophen-2-yl)propan-1-amine] | > 1000 nM | ≥ 3000 nM
16 | CNCC[C@H](c1cscc1C)N1CCc2ncccc21 [Example 51, (R)-3-(2,3-Dihydro-1H-pyrrolo[3,2-b]pyridin-1-yl)-N-methyl-3-(4-methylthiophen-3-yl)propan-1-amine] | > 1000 nM | ≥ 3000 nM
17 | CNCC[C@@H](c1ccsc1)N1CCc2ncc(C3CC3)cc21 [Example 53, (S)-3-(6-Cyclopropyl-2,3-dihydro-1H-pyrrolo[3,2-b]pyridin-1-yl)-N-methyl-3-(thiophen-3-yl)propan-1-amine] | > 1000 nM | 500 to 3000 nM
18 | CNCC[C@H](c1nccs1)N1CCc2ncccc21 [Example 54, (R)-3-(2,3-Dihydro-1H-pyrrolo[3,2-b]pyridin-1-yl)-N-methyl-3-(thiazol-2-yl)propan-1-amine] | > 1000 nM | ≥ 3000 nM
19 | CNCC[C@@H](c1nccs1)N1CCc2ncccc21 [Example 55, (S)-3-(2,3-Dihydro-1H-pyrrolo[3,2-b]pyridin-1-yl)-N-methyl-3-(thiazol-2-yl)propan-1-amine] | > 1000 nM | ≥ 3000 nM
20 | CNCC[C@H](c1cc(C)cs1)N1CCc2ncccc21 [Example 56, (R)-3-(2,3-Dihydro-1H-pyrrolo[3,2-b]pyridin-1-yl)-N-methyl-3-(4-methylthiophen-2-yl)propan-1-amine] | > 1000 nM | 500 to 3000 nM
21 | CNCC[C@@H](c1cc(C)cs1)N1CCc2ncccc21 [Example 57, (S)-3-(2,3-Dihydro-1H-pyrrolo[3,2-b]pyridin-1-yl)-N-methyl-3-(4-methylthiophen-2-yl)propan-1-amine] | > 1000 nM | 500 to 3000 nM

Other lines, results leading:

Row | Ki [1] | Ki [2] | Structure (SMILES)
22 | 500 to 1000 nM | 100 to 500 nM | CNCC[C@H](c1ccsc1)N1CCc2ncc(F)cc21 [Example 28, (R)-3-(6-Fluoro-2,3-dihydro-1H-pyrrolo[3,2-b]pyridin-1-yl)-N-methyl-3-(thiophen-3-yl)propan-1-amine]
23 | 500 to 1000 nM | 100 to 500 nM | CNCC[C@@H](c1ccsc1)N1CCc2ncc(F)cc21 [Example 29, (S)-3-(6-Fluoro-2,3-dihydro-1H-pyrrolo[3,2-b]pyridin-1-yl)-N-methyl-3-(thiophen-3-yl)propan-1-amine]
24 | 500 to 1000 nM | ≥ 3000 nM | CNCC[C@@H](c1cccs1)N1CCc2ncc(OC)cc21 [Example 31, (S)-3-(6-Methoxy-2,3-dihydro-1H-pyrrolo[3,2-b]pyridin-1-yl)-N-methyl-3-(thiophen-2-yl)propan-1-amine]
25 | 100 to 500 nM | 100 to 500 nM | CCc1cnc2c(c1)N([C@H](CCNC)c1cccs1)CC2 [Example 32, (R)-3-(6-Ethyl-2,3-dihydro-1H-pyrrolo[3,2-b]pyridin-1-yl)-N-methyl-3-(thiophen-2-yl)propan-1-amine]
26 | 500 to 1000 nM | ≥ 3000 nM | CCc1cnc2c(c1)N([C@@H](CCNC)c1cccs1)CC2 [Example 33, (S)-3-(6-Ethyl-2,3-dihydro-1H-pyrrolo[3,2-b]pyridin-1-yl)-N-methyl-3-(thiophen-2-yl)propan-1-amine]
27 | < 100 nM | 100 to 500 nM | CNCC[C@@H](c1cccs1)N1CC(C)(C)c2nc(C)ccc21 [Example 35, (S)-N-methyl-3-(thiophen-2-yl)-3-(3,3,5-trimethyl-2,3-dihydro-1H-pyrrolo[3,2-b]pyridin-1-yl)propan-1-amine]
28 | 100 to 500 nM | ≥ 3000 nM | CNCC[C@H](c1sccc1Cl)N1CCc2ncccc21 [Example 36, (R)-3-(3-Chlorothiophen-2-yl)-3-(2,3-dihydro-1H-pyrrolo[3,2-b]pyridin-1-yl)-N-methylpropan-1-amine]
29 | 100 to 500 nM | ≥ 3000 nM | CNCC[C@@H](c1sccc1Cl)N1CCc2ncccc21 [Example 37, (S)-3-(3-Chlorothiophen-2-yl)-3-(2,3-dihydro-1H-pyrrolo[3,2-b]pyridin-1-yl)-N-methylpropan-1-amine]
30 | 500 to 1000 nM | 100 to 500 nM | CNCC[C@@H](c1ccc(Cl)s1)N1CCc2ncccc21 [Example 40, (S)-3-(5-Chlorothiophen-2-yl)-3-(2,3-dihydro-1H-pyrrolo[3,2-b]pyridin-1-yl)-N-methylpropan-1-amine]
31 | 100 to 500 nM | ≥ 3000 nM | CNCC[C@@H](c1cscc1C)N1CCc2ncccc21 [Example 50, (S)-3-(2,3-Dihydro-1H-pyrrolo[3,2-b]pyridin-1-yl)-N-methyl-3-(4-methylthiophen-3-yl)propan-1-amine]
32 | 500 to 1000 nM | < 100 nM | CNCC[C@H](c1ccsc1)N1CCc2ncc(C3CC3)cc21 [Example 52, (R)-3-(6-Cyclopropyl-2,3-dihydro-1H-pyrrolo[3,2-b]pyridin-1-yl)-N-methyl-3-(thiophen-3-yl)propan-1-amine]
